Experimental data taken from patent publication US8476248B2, “Process for the preparation of a water-soluble complex having resveratrol compounds; products comprising said complex; and uses thereof” (Uniao Brasileira de Educacao e Assistencia—Mantenedora da …, priority 2007, dated 2013).
In brackets after ≈: the same amount, converted by molar mass.

Key:
[1] = physchem; assay type: physicochemical
Method: Ten mg, 100 mg, 500 mg, 1000 mg and 2000 mg of β-CD/Res complex were put in 100 mL volumetric flasks and water was added until completing their volume. The solutions stayed at ultrasound for 60 minutes. Then samples were centrifuged and filtered in a 0.45 μm pore diameter cellulose acetate membrane. Twenty μL portions of the samples were diluted 2000 times and their absorbances were measured by a UV-VIS spectrophotometer (FIG. 2). It was noticed that system saturation happens from 1000 mg of β-CD/Res (FIG. 3). The concentration of trans-resveratrol in 1000 mg and 2000 mg β-CD/Res sample concentrations was determined by High-Performance Liquid Chromatography (HPLC). For quantification, an external calibration curve was used, with trans-resveratrol concentrations ranging from 0.10 a 200.0 mg.L^−1. HPLC was carried out in isocratic elution (flow of 1.0 mL min^−1), with an aqueous solution of 25% acetonitrile, pH 3.0, adjusted with H3PO4. The chromatograph was equipped with UV-VIS detector and a C18 column, 5 μm 250×4.6 mm. Sample portions were diluted 1000 times with eluent, and 20 μL were injected and detected in 306 nm. The concentrations of trans-resveratrol of the 1000 mg sample of β-CD/Res complex were 3010±62 mg.L^−1 and of the 2000 mg sample of βCD/Res complex were 2960.5±53 mg.L^−1. […] All analyses were carried out in quintuplicate.

[2] = background statement; cited from earlier work

Solubility ([1]; 60 min): 27.5 µg/mL (≈ 120 µM)
solubility at 60 min ([1]; water, thermodynamic from solid): 27.5 ± 0.45 µg/mL (≈ 120 µM)
SMILES: Oc1ccc(C=Cc2cc(O)cc(O)c2)cc1 [trans-resveratrol, 3,5,4′-trihydroxystilbene]
water solubility [2]: less than 0.03 g/L
